Measured values from patent US4966895A, “Cyclic monophosphates of purine and pyrimidine acyclonucleosides as anti-retroviral agents” (Merck & Co. Inc., priority 1989, dated 1990).
In brackets after ≈: the same amount, converted by molar mass. Counter-ions that a name gives are not always drawn. Like-named read-outs stand apart in the source and are kept apart here.

What was measured:
[1] = in vitro; format: cell-based; details: sheep, choroid plexus cells
Description: (§1) Visna virus is cultivated in low passage cells derived from the choroid plexus (SCP) of a newborn lamb. The choroid plexus is dissected from the newborn lamb, minced and diluted in minimum essential medium (MEM), containing 20% fetal bovine serum (FBS), 1 mM N 2-hydroxyethylpiperazine-N'-2-ethane sulfonic acid (HEPES), 50 μg/ml gentamicin at PH 7.4. After initial cultivation, cells are dispersed by addition of trypsin (0.25%) plus EDTA, split 1:2 and added to MEM+10% FBS, HEPES, gentamicin and reincubated. At approximately passage 4 there are adequate numbers of cells for freezing and storage in liquid nitrogen.
(§2) For antiviral assays, 0.2 ml SCP cells (0.7×10^5 cells/ml) are inoculated into wells of 96 well microtiter plates and incubated for 18-24 hours.
(§3) The medium is decanted from the cells, and drug and virus(~320-50% infectious doses) are added within 15 minutes. Each concentration of drug (serial two-fold or half-log dilutions) are added in 0.1 ml volumes to each of 6 wells. Visna virus is added (0.1 ml) to 4 wells for observation of virus inhibitory activity.
(§4) Virus free test medium is added to two wells (0.1 mL) for observation of drug cytotoxicity. Experimental controls include: cell control (cells with 0.2 mL medium) and virus controls (cells with 0.1 mL virus and 0.1 mL medium). The degree of CPE inhibition and drug cytotoxicity in comparison with virus and cell controls is observed microscopically after 6 days of incubation at 37° C. Fresh medium and drug dilutions are placed on the cells after 3 days of incubation. Virus CPE and drug cytotoxicity are scored on a 0-4 basis with 4 representing total cell destruction. The lowest concentration of drug producing ≥50% inhibition of virus-induced CPE is considered the minimum inhibitory concentration (MIC). The lowest concentration of drug producing a score of […] or visable alteration in cell morphology will be considered the minimum cytotoxic concentration (MCC). Using the observed percent CPE, the MIC will be calculated by linear regression analysis.

[2] = tested on: visna virus; test: Inhibition of visna virus-induced CPE in sheep choroid plexus (SCP) cells; format: cell-based, strain 1514; details: Visna-maedi virus, 144 h
Description: Activity of 9-[(2-hydroxy-1,3,2-dioxophosphorian-5-yl)oxymethyl]guanine P-oxide, sodium salt (2'-NOR-cGMP) against visna virus in sheep choroid plexus cells.
Visna virus, strain 1514, is a lentivirus of the retrovirus family. It was chosen because of its genetic and biologic similarity to the human immunodeficiency viruses (HIV). Since visna virus and the human immunodeficiency virus are closely related retroviruses, activity against the visna virus by a compound is felt to predict activity against the human immunodeficiency virus by the same compound. (See Visna Virus as an In Vitro Model for Human Immunodeficiency Virus and Inhibition by Ribavirin, Phosphonoformate, and 2',3'-Dideoxy-nucleosides, Frank K. B.; McKernan P.A.; Smith R.A.; Smee D.F.; Antimicrobiol Agents and Chemotherapy, Sept. 1987; Vol. 31, No. 9 Pg 1369-1374.) The virus has been cultivated and plaque purified in SCP cells fed with MEM, HEPES, gentamicin and 2% lamb serum.
as §1, §2, §3, §4

[3] = MCC (minimum cytotoxic concentration), Range
[4] = mean of individual values, ≥50% inhibition of virus-induced CPE, 6 days, 37° C, sheep choroid plexus cells, read-out: MIC (minimum inhibitory concentration), Mean
[5] = read-out: MIC (minimum inhibitory concentration), Mean

MIC [2, 4] [µg/mL]	Compound	MCC at 144 h [1, 3] [µg/mL]	MCC at 144 h ([1]; MCC (minimum cytotoxic concentration), Individual Values) [µg/mL]	MIC ([2]; read-out: MIC (minimum inhibitory concentration), Individual Values) [µg/mL]	MIC [2, 5] [µg/mL]	MCC at 144 h ([1]; range of individual values, 6 days, 37° C, virus free, read-out: MCC (minimum cytotoxic concentration), Range) [µg/mL]	MCC at 144 h ([1]; lowest concentration producing a score of ≤1 or visible alteration in cell morphology, 6 days, 37° C, virus free, read-out: MCC (minimum cytotoxic concentration), Individual Values) [µg/mL]
24	Nc1nc2c(ncn2COC2COP(=O)(O)OC2)c(=O)[nH]1 (centres unmarked) [2'-nor-cGMP, 9-[(2-hydroxy-1,3,2-dioxophosphorian-5-yl)oxymethyl]guanine P-oxide, sodium salt]	32 to 100	–	–	–	–	–
–	Cc1cn([C@H]2C[C@H](N=[N+]=[N-])[C@@H](CO)O2)c(=O)[nH]c1=O [Azidothymidine]	40	40	10 (≈ 37.4 µM)	10 (≈ 37.4 µM)	–	–
–	O=C(O)P(=O)(O)O [Phosphonoformate]	–	–	–	57.4 (≈ 456 µM)	100	100
175 (≈ 718 µM)	NC(=O)c1ncn([C@@H]2O[C@H](CO)[C@@H](O)[C@H]2O)n1 [Virazole]	100 to 320	–	–	–	–	–
